# Reference: patent US9856321B2, “Anti-DR5 antibodies, polynucleotides and methods” (Daiichi Sankyo Company, Limited, priority 2010, dated 2018)
# Key:
# [1] = system: human colon cancer cell line DLD-1; test: Antitumor activity in nude mice implanted with DLD-1 (in combination with CPT-11); format: in vivo; settings: day 55; cB273 10 mg/kg ip day 35; CPT-11 80 mg/kg ip days 35, 40, 43
# Description: CPT-11 was intraperitoneally administered at a dose of 80 mg/kg on days 35, 40, and 43 after the implantation (n=10).
# [2] = system: human colon cancer cell line HCT-15; test: Antitumor activity in nude mice implanted with HCT-15 (in combination with CPT-11); format: in vivo; settings: day 31; cB273 10 mg/kg tail vein day 7; CPT-11 80 mg/kg ip days 7, 10, 14
# Description: CPT-11 was intraperitoneally administered at a dose of 80 mg/kg on days 7, 10, and 14 after the implantation (n=10).
# [3] = system: human colon cancer cell line HCT-116; test: Antitumor activity in nude mice implanted with HCT-116 (in combination with CPT-11); format: in vivo; settings: day 28; cB273 10 mg/kg tail vein day 7; CPT-11 65 mg/kg ip days 7, 10, 14
# Description: CPT-11 was intraperitoneally administered at a dose of 65 mg/kg on days 7, 10, and 14 after the implantation (n=10).
# [4] = system: human non-small cell lung cancer cell line NCI-H1975; settings: day 32; antibody 3 mg/kg tail vein days 11, 18, 25; paclitaxel 6.25 mg/kg tail vein days 11-14
# Description: The major axis and the minor axis of the implanted tumor were measured twice a week using an electronic digital caliper (manufactured by Mitutoyo Corporation), and the tumor volume was calculated according to the following calculation formula. Tumor volume (mm^3)=1/2×(Minor axis)^2 (mm)×(Major axis)^2 (mm)
# 3×10^6 cells of a human non-small cell lung cancer cell line NCI-H1975 (purchased from ATCC) were implanted subcutaneously in the axillary region of nude mice. […] Paclitaxel was administered to tumor-bearing mice through the tail vein on days 11, 12, 13, and 14 after the implantation at a dose of 6.25 mg/kg. The experiment was carried out at n=6. In the same manner as described above, the major axis and the minor axis of the implanted tumor were measured, and the tumor volume was calculated.
# [5] = system: human colon cancer cell line HCT-15; test: Antitumor activity in combination with 5-FU in nude mice implanted with HCT-15, comparison with conatumumab; format: in vivo; settings: day 28; antibody 3 mg/kg tail vein days 7, 14, 21; 5-FU 160 mg/kg tail vein day 7
# [6] = system: human melanoma cell line A375; test: Antitumor activity in nude mice implanted with A375 (in combination with vinblastine); format: in vivo; settings: day 46; cB273 10 mg/kg tail vein days 10, 17, 24; vinblastine 10 mg/kg tail vein day 10
# [7] = system: human colon cancer cell line HCT-15; test: Comparison of antitumor activity in nude mice implanted with HCT-15 between cB273 and conatumumab; format: in vivo; settings: day 30 after the implantation
# Description: 1×10^7 cells of a human colon cancer cell line HCT-15 (purchased from ATCC) were implanted subcutaneously in the axillary region of nude mice. […] In the same manner as described above, the major axis and the minor axis of the implanted tumor were measured, and the tumor volume was calculated.
# [8] = system: human lung cancer cell line NCI-H1975; test: Comparison of antitumor activity in nude mice implanted with NCI-H1975 between cB273 and conatumumab; format: in vivo; settings: day 32 after the implantation
# Description: 3×10^6 cells of a human lung cancer cell line NCI-H1975 (purchased from ATCC) were implanted subcutaneously in the axillary region of nude mice. […] In the same manner as described above, the major axis and the minor axis of the implanted tumor were measured, and the tumor volume was calculated.
# [9] = system: human T-lymphoma cell line Jurkat; test: In vitro cytocidal activity of mouse antibody B273, Jurkat; format: cell-based; settings: 10,000 to 0.01 ng/ml with goat anti-mouse IgG Fc, 24 hours
# Description: (§1) Each of a human T-lymphoma cell line Jurkat and a human glioblastoma cell line U-87MG was prepared at 4.4×10^4 cells/ml in RPMI 1640 medium containing 10% FBS or MEM (Minimum Essential Medium) medium containing 10% FBS and added to a white clear bottom 96-well microplate (manufactured by Corning Incorporated) at […], and cultured overnight under the conditions of 37° C. and 5% CO2. The mouse B273 antibody or the mouse IgG1 antibody (manufactured by R&D Systems, Inc.) was mixed with the same concentration of AffiniPure goat anti-mouse IgG Fc specific (manufactured by Jackson ImmunoResearch Laboratories, Inc., #115-005-071), and the resulting mixture was added at 5 μl/well such that the final concentration of the mouse B273 antibody or the mouse IgG1 antibody was 10,000 to 0.01 ng/ml, and the cells were cultured under the conditions of 37° C. and 5% CO2 for 24 hours. The amount of ATP derived from viable cells in each well was measured by a luminometer (manufactured by Perkin Elmer, Inc.) using a CellTiter-Glo® luminescent cell viability assay kit (manufactured by Promega Corporation, #G7571) according to the attached protocol. The cytocidal activity was evaluated by taking the value obtained from the well to which the medium was added in place of the antibody solution as 100% (FIG. 1). In each graph, the cell viability is expressed as a mean±standard deviation (n=3).
# [10] = system: human glioblastoma cell line U-87MG; test: In vitro cytocidal activity of mouse antibody B273, U-87MG; format: cell-based; settings: 10,000 to 0.01 ng/ml with goat anti-mouse IgG Fc, 24 hours
# Description: as §1
molecule,measurement,setting,value
"CCc1c2c(nc3ccc(OC(=O)N4CCC(N5CCCCC5)CC4)cc13)-c1cc3c(c(=O)n1C2)COC(=O)[C@]3(O)CC [CPT-11, irinotecan (CPT-11), reference compound]",tumor growth inhibitory rate,[1],29.5%
same,tumor growth inhibitory rate,[2],83.5%
same,tumor growth inhibitory rate,[3],89.8%
CC(=O)O[C@H]1C(=O)[C@@]2(C)[C@H]([C@H](OC(=O)c3ccccc3)[C@]3(O)C[C@H](OC(=O)[C@H](O)[C@@H](NC(=O)c4ccccc4)c4ccccc4)C(C)=C1C3(C)C)[C@]1(OC(C)=O)CO[C@@H]1C[C@@H]2O [paclitaxel],tumor growth inhibitory rate,[4],49%
O=c1[nH]cc(F)c(=O)[nH]1 [5-FU],tumor growth inhibitory rate,[5],54%
"CC[C@]1(O)C[C@@H]2CN(CCc3c([nH]c4ccccc34)[C@@](C(=O)OC)(c3cc4c(cc3OC)N(C)[C@H]3[C@@](O)(C(=O)OC)[C@H](OC(C)=O)[C@]5(CC)C=CCN6CC[C@]43[C@@H]65)C2)C1 [vinblastine, reference compound]",tumor growth inhibitory rate,[6],43.6%
conatumumab [reference compound],tumor growth inhibitory rate,"[7]; 3 mg/kg tail vein days 6, 13, 20",27.4%
same,tumor growth inhibitory rate,"[7]; 10 mg/kg tail vein days 6, 13, 20",26.9%
same,tumor growth inhibitory rate,"[7]; 30 mg/kg tail vein days 6, 13, 20",20.3%
same,tumor growth inhibitory rate,"[8]; 3 mg/kg tail vein days 12, 19, 26",13.5%
same,tumor growth inhibitory rate,"[8]; 10 mg/kg tail vein days 12, 19, 26",12.6%
same,tumor growth inhibitory rate,[5],27%
same,tumor growth inhibitory rate,[4],40%
"B273: mouse anti-human DR5 monoclonal antibody from hybridoma B273; heavy chain SEQ ID NO: 8, light chain SEQ ID NO: 10; IgG1, κ (antibody, listed as Mus musculus) heavy: MGWSCIFLFLLSVTVGVFSEVQLQQSGPELVKPGASVKISCKASGYSFIGYFMNWMKQSHGKSLEWIGRFNPYNGDTFYNQKFKGKATLTVDKSSTTAHMELLSLTSEDSAVYFCGRSAYYFDSGGYFDYWGQGTTLTVSSAKTTPPSVYPLAPGSAAQTNSMVTLGCLVKGYFPEPVTVTWNSGSLSSGVHTFPAVLQSDLYTLSSSVTVPSSTWPSETVTCNVAHPASSTKVDKKIVPRDCGCKPCICTVPEVSSVFIFPPKPKDVLTITLTPKVTCVVVDISKDDPEVQFSWFVDDVEVHTAQTQPREEQFNSTFRSVSELPIMHQDWLNGKEFKCRVNSAAFPAPIEKTISKTKGRPKAPQVYTIPPPKEQMAKDKVSLTCMITDFFPEDITVEWQWNGQPAENYKNTQPIMDTDGSYFVYSKLNVQKSNWEAGNTFTCSVLHEGLHNHHTEKSLSHSPGK light: MKLPVRLLVLMFWIPASSSDVVMTQTPLSLPVSLGDQASISCRSSQSLVHSNGNTYLHWYLQKPGQSPKLLIYKVSNRFSGVPDRFSGSGSGTDFTLKISRVEAEDLGIYFCSQSTHVPWTFGGGTKLEIKRADAAPTVSIFPPSSEQLTSGGASVVCFLNNFYPKDINVKWKIDGSERQNGVLNSWTDQDSKDSTYSMSSTLTLTKDEYERHNSYTCEATHKTSTSPIVKSFNRNEC","cytocidal effect (cell viability, ATP)",[9],exhibits a cytocidal effect on both cell lines in an antibody concentration-dependent manner
same,"cytocidal effect (cell viability, ATP)",[10],exhibits a cytocidal effect on both cell lines in an antibody concentration-dependent manner
